Residues, ends and D or L forms follow the SMILES beside them.
Key:
[1] = biological target: T1, Aβo-VEGF interaction (recombinant human VEGF165) (Homo sapiens, UniProt P05067); experiment: Competitive ELISA of Aβo binding to immobilized VEGF; details: for inhibition of the binding of Aβo to VEGF: biotinylated Aβ42 oligomers 2.1 μM, peptide 10 nM to 100 μM
T1 construct: purchased Bachem
Protocol: Competitive ELISA experiments were performed to analyze the ability of the BP to impede AB42 oligomers binding to VEGF. For these assays, recombinant human VEGF165 (500 ng/ml-1) was immobilized in the 96-well microplate as the capture antigen and incubated overnight at 4° C. The following day, biotinylated AB42 oligomers were precubated at 2.1 μM for 1 h at RT with various concentrations of the CP or BP ranging from 10 nM to 100 μM. After 3 rinces with PBS 0.05% Tween 20, the mix was added in triplicate and incubated for 2 h at RT. Next, a washing step was performed followed by an incubation with the HRP-conjugated streptavidin for 20 min, additional rinces and finally the substrate solution containing TMB and H2O2. Absorbance was measured using a TECAN microplate reader.

AB40 monomers (Aβm) = biological target: T2, AB40 monomers (Aβm) (Homo sapiens, UniProt P05067); experiment: Indirect ELISA, binding of coated peptide to biotinylated Aβ40 monomers
T2 construct: synthetic biotinylated Aβ42 oligomers (Aβo) or AB40 monomers (Aβm); purchased Bachem; host or cells: chemical synthesis
T2 sequence (P05067 672-711 limits assumed): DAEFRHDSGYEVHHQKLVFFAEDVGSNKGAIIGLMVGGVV
Protocol: (§1) The binding of the CP or BP to synthetic biotinylated Aβ42 oligomers (Aβo) or AB40 monomers (Aβm) was determined by indirect ELISA in which the CP or BP were used as the capture antigens and the biotin tag of the biotinylated Aβ peptides for the detection. 96-well clear polystyrene microplate (BioTechne DY990) were coated overnight at 4° C. with 5 μM of the CP or BP in PBS, pH 7.4. After immobilization, the plate was washed three times with PBS 0.05% Tween 20 and various concentrations of biotinylated Aβ peptides were added in triplicate from 0.1 μg.mL-1 to 10 μg.mL-1 (21 nM to 2.1 μM for Aβo (42), 22 nM to 2.2 μM for Aβm (40) and incubated for 2 h at RT. After additional washes with PBS 0.05% Tween 20, HRP-conjugated streptavidin (1/40) was added for 20 min at RT, followed by a washing step and an incubation in substrate solution containing 3,3′,5,5′-Tetramethylbenzidine (TMB) and H2O2. The reaction was stopped by H2SO4. Absorbance was successively measured at 450 and 540 nm with a TECAN microplate reader and optical density values at 540 nm were subtracted from the ones at 450 nm to correct for optical imperfections of the plate. Unspecific Aβ binding to the microplate was determined using non-coated wells.

[2] = system: hippocampal slices from 8-month-old WT and APP/PS1 mice; experiment: LTP field potential recordings in acute hippocampal slices; set-up: species or system mouse; details: for LTP amplitude computed as fEPSP slope 50 to 60 min after TBS / effect on LTP responses in WT slices: peptide 500 nM for 40 min before TBS
Protocol: Animals specimens Embryonic day 17-18 (E17-18) C57BI/6JRj wild-type male and female mice were used for primary hippocampal cell cultures. Electrophysiological field potential recording experiments were performed on 8-month-old wild type and transgenic heterozygous male APP/PS1-21 mice generated on a C57Bl/6 background and expressing a transgene combining human APP with the Swedish mutation (APPKM670/671NL) and mutated L166P human presenilin 1 (PS1) under the Thyl promoter (Radde et al, 2006). Wild type and APP/PSI mice were generated as described previously (Radde et al, 2006) and genotyping was carried out to reveal the presence or absence of APP and PSI transgenes. The study was conducted in accordance with the European Community Council directive 2010/63/EU on the protection of animals used for experimental and scientific purposes. Animal care and treatment procedures were realized according to the guidelines approved by the French Ethical Committee of the Lyon 1 University (DR2013-47).
Local field potential recordings (LFP) were performed on acute coronal hippocampal slices from 8-month-old wild type and transgenic heterozygous male APP/PS1-21 mice to measure baseline synaptic response and long-term potentiation (LTP) of Schaffer collaterals to CAI pyramidal cell synapses. Hippocampal slices (400 μm thick) were cut using a vibratome (Leica VT1200S) and incubated at room temperature in artificial cerebrospinal fluid (ACSF) containing (in mM): 124 NaCl, 10 glucose, 1.25 NaH2PO4, 2.5 KCl, 26 NaHCO3, 1.3 MgCl2, and 2.5 CaCl2, bubbled with 95% 02 and 5% CO2, pH 7.4) for 1 h prior to recording. Field excitatory postsynaptic potentials (fEPSPs) were recorded extracellularly in stratum radiatum of CAI region of the dorsal hippocampus in presence of gammaaminobutyric acid (GABA)-A receptor antagonist picrotoxin (100 μM). Electrical stimulation was realized with a bipolar tungsten electrode placed in CAI stratum radiatum and fEPSPs were measured using borosilicate glass microelectrodes (˜1-3 M (2) filled with ACSF. The tip of the recording electrode was located close to the slice surface. LFP were amplified and low-pass filtered at 3 kHz using a differential amplifier (X1000, WPI) and data acquisition and analyses were carried out using a National Instrument interface coupled with Elphy software (G. Sadoc, CNRS, France). LFP were sampled at 10 kHz and fEPSPs initial slope was computed to quantify synaptic responses. After baseline recordings of synaptic activity evoked at 0.2 Hz for at least 10 minutes, slices were incubated in ACSF or treated with the CP or BP at 500 nM for 40 min before inducing LTP with the theta burst stimulation (TBS). The effects of the peptides on synaptic responses were tested in a series of pilot experiments on mice of both genotypes. […] TBS consisted of 10 trains separated by 30 s, each train composed of 6 bursts at 5 Hz and each burst providing 4 pulses at 100 Hz. Before LTP induction, precautions were taken to ensure that approximately the same amplitude of fEPSPs was obtained in baseline for the different experiments to achieve the same level of cooperativity in each group. After LTP induction, fEPSPs were recorded for at least 60 min.

[3] = biological target: T3, soluble Aβ species (monomers, LMW and HMW Aβo) (Homo sapiens, UniProt P05067); experiment: Western blotting of soluble Aβ species (6E10 antibody); type: biochemical
T3 construct: purchased Bachem; host or cells: chemical synthesis
T3 sequence (P05067 672-713 limits assumed): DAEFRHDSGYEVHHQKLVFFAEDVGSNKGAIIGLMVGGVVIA
Protocol: Aβ preparations (1 μg) were subjected to immunoblotting analysis and separated on 4-12% gradient SDS-PAGE gels, prior to being transferred on nitrocellulose membranes. After a 45 minutes blocking step in Tris-buffered saline, 0.1% Tween, pH 7.6, 5% milk, membranes were immunoblotted overnight at 4° C. with the 6E10 anti-Ab antibody diluted in Tris-buffered saline, 0.1% Tween, pH 7.6, with 2% milk. Horseradish peroxidase (HRP)-conjugated secondary anti-mouse antibody was next applied for 1 h30 at room temperature. Proteins were visualized with an ECL detection system and band intensities quantified using a densitometric analysis with Image J software.

Aβ42 oligomers (Aβo) = biological target: T4, Aβ42 oligomers (Aβo) (Homo sapiens, UniProt P05067); experiment: Indirect ELISA, binding of coated peptide to biotinylated Aβ42 oligomers; details: peptide coated at 5 μM
T4 construct: purchased Bachem; host or cells: chemical synthesis
T4 sequence (P05067 672-713 limits assumed): as above
Protocol: as §1

[4] = Aβ aggregated with peptide for 24 hours, compared to the two other conditions

T1 sequence (P05067 672-713 limits assumed): as above

CC(C)[C@H](NC(=O)[C@H](Cc1ccc(O)cc1)NC(=O)[C@@H](NC(=O)[C@H](CO)NC(=O)[C@H](Cc1c[nH]c2ccccc12)NC(=O)[C@H](CO)NC(=O)[C@H](CCCCN)NC(=O)[C@H](Cc1ccc(O)cc1)NC(=O)[C@H](CCCNC(=N)N)NC(=O)[C@H](CO)NC(=O)[C@H](CCCCN)NC(=O)[C@H](CCCCN)NC(=O)[C@H](CCCNC(=N)N)NC(=O)[C@@H](N)CCCCN)C(C)C)C(=O)NCC(=O)O [BP, KRKKSRYKSWSVYVG] (H-KRKKSRYKSWSVYVG-OH; N-terminus and C-terminus assumed)
Ki [1]: 340 nM | inhibition of the binding of Aβo to VEGF [1]: clear dose-dependent reduction | Kd (AB40 monomers (Aβm)): 19000 nM | change in baseline synaptic responses before LTP induction ([2]; 500 nM, during the 40 min prior to LTP induction, mice of both genotypes): did not induce a change | LTP amplitude computed as fEPSP slope 50 to 60 min after TBS ([2]; APP/PS1 slices): 226.7±40.5% | effect on LTP responses in WT slices ([2]; WT slices): does not alter LTP responses | fraction of LMW Aβo ([3]; Aβ aggregated with peptide for 2 hours, compared to Aβ alone and Aβ and CP): significantly increased | amount of HMW Aβo ([3]; Aβ aggregated with peptide for 2 hours, compared to the Aβ alone condition): significant decrease | LMW Aβo and Aβ monomers [3, 4]: increase | fraction of HMW Aβo [3, 4]: significant decrease | Kd (Aβ42 oligomers (Aβo); ELISA titration binding curves): 12 nM

NDYKDDDDKGAAA [CP, reference compound]
inhibition of the binding of Aβo to VEGF [1]: did not inhibit | binding to Aβm (AB40 monomers (Aβm); ELISA, peptide coated at 5 μM): fails to bind | LTP amplitude computed as fEPSP slope 50 to 60 min after TBS ([2]; APP/PS1 slices): 119.8±9.1% | LTP amplitude computed as fEPSP slope 50 to 60 min after TBS ([2]; WT slices): 191.4±18.3% | effect on LTP responses in WT slices ([2]; WT slices): does not alter LTP responses | binding to Aβo (Aβ42 oligomers (Aβo); ELISA): fails to bind

Source: patent US20250340593A1, “METHOD AND COMPOSITION FOR TREATING NEURODEGENERATIVE DISORDER” (priority 2022, published 2025)
